# In ChEMBL document CHEMBL3112553, “Synthesis and biological evaluation of novel C6-amino substituted 4-azasteroidal purine nucleoside analogues” (Bioorg Med Chem Lett, 2014):
# Columns and labels:
# Type in all cases: functional, cell-based
# PC-3 = experiment: Antiproliferative activity against human PC3 cells by MTT assay
# HeLa = experiment: Antiproliferative activity against human HeLa cells by MTT assay
# MCF7 = experiment: Antiproliferative activity against human MCF7 cells by MTT assay
SMILES,IC50 (PC-3) [µM],IC50 (HeLa) [µM],IC50 (MCF7) [µM]
COc1ccc(CNc2ncnc3c2ncn3[C@@H]2CC[C@H]3[C@@H]4CC[C@H]5NC(=O)CC[C@]5(C)[C@H]4CC[C@]3(C)O2)cc1,> 100,38.7,60.3
Cc1ccc(CNc2ncnc3c2ncn3[C@@H]2CC[C@H]3[C@@H]4CC[C@H]5NC(=O)CC[C@]5(C)[C@H]4CC[C@]3(C)O2)cc1,44.2,28.2,32.7
C[C@]12CCC(=O)N[C@@H]1CC[C@@H]1[C@@H]2CC[C@]2(C)O[C@H](n3cnc4c(NCc5ccccc5)ncnc43)CC[C@@H]12,20.6,> 100,> 100
C[C@]12CCC(=O)N[C@@H]1CC[C@@H]1[C@@H]2CC[C@]2(C)O[C@H](n3cnc4c(NCc5ccc(F)cc5)ncnc43)CC[C@@H]12,91.5,> 100,34.8
CC(CO)Nc1ncnc2c1ncn2[C@@H]1CC[C@H]2[C@@H]3CC[C@H]4NC(=O)CC[C@]4(C)[C@H]3CC[C@]2(C)O1 (stereo partly specified),15.8,> 100,> 100
CN(C)c1ncnc2c1ncn2[C@@H]1CC[C@H]2[C@@H]3CC[C@H]4NC(=O)CC[C@]4(C)[C@H]3CC[C@]2(C)O1,> 100,70.5,57.7
COc1ccc(CNc2nc(Cl)nc3c2ncn3[C@@H]2CC[C@H]3[C@@H]4CC[C@H]5NC(=O)CC[C@]5(C)[C@H]4CC[C@]3(C)O2)cc1,> 100,10.1,> 100
CCN(CC)c1ncnc2c1ncn2[C@@H]1CC[C@H]2[C@@H]3CC[C@H]4NC(=O)CC[C@]4(C)[C@H]3CC[C@]2(C)O1,> 100,33.8,> 100
C[C@]12CCC(=O)N[C@@H]1CC[C@@H]1[C@@H]2CC[C@]2(C)O[C@H](n3cnc4c(NN)ncnc43)CC[C@@H]12,87.2,> 100,34.6
C[C@]12CCC(=O)N[C@@H]1CC[C@@H]1[C@@H]2CC[C@]2(C)O[C@H](n3cnc4c(N(CCO)CCO)ncnc43)CC[C@@H]12,> 100,> 100,> 100

# Second part, the compound after the results:
IC50 (PC-3) [µM],IC50 (HeLa) [µM],IC50 (MCF7) [µM],SMILES
26.6,67.2,12.9,Cc1ccc(CNc2nc(Cl)nc3c2ncn3[C@@H]2CC[C@H]3[C@@H]4CC[C@H]5NC(=O)CC[C@]5(C)[C@H]4CC[C@]3(C)O2)cc1
> 100,66.2,> 100,C[C@]12CCC(=O)N[C@@H]1CC[C@@H]1[C@@H]2CC[C@]2(C)O[C@H](n3cnc4c(NCCN)ncnc43)CC[C@@H]12
> 100,61.3,> 100,CN(C)c1nc(Cl)nc2c1ncn2[C@@H]1CC[C@H]2[C@@H]3CC[C@H]4NC(=O)CC[C@]4(C)[C@H]3CC[C@]2(C)O1
> 100,> 100,> 100,C[C@]12CCC(=O)N[C@@H]1CC[C@@H]1[C@@H]2CC[C@]2(C)O[C@H](n3cnc4c(N(CCO)CCO)nc(Cl)nc43)CC[C@@H]12
63.4,22.7,70.3,C[C@]12CCC(=O)N[C@@H]1CC[C@@H]1[C@@H]2CC[C@]2(C)O[C@H](n3cnc4c(NCCN)nc(Cl)nc43)CC[C@@H]12
> 100,> 100,> 100,C[C@]12CCC(=O)N[C@@H]1CC[C@@H]1[C@@H]2CC[C@]2(C)O[C@H](n3cnc4c(NCCO)nc(Cl)nc43)CC[C@@H]12
17.9,2.69,12.8,C[C@]12CCC(=O)N[C@@H]1CC[C@@H]1[C@@H]2CC[C@]2(C)O[C@H](n3cnc4c(NCc5ccccc5)nc(Cl)nc43)CC[C@@H]12
> 100,59.1,13.5,C[C@]12CCC(=O)N[C@@H]1CC[C@@H]1[C@@H]2CC[C@]2(C)O[C@H](n3cnc4c(NCc5ccc(F)cc5)nc(Cl)nc43)CC[C@@H]12
2.84,> 100,> 100,CC(CO)Nc1nc(Cl)nc2c1ncn2[C@@H]1CC[C@H]2[C@@H]3CC[C@H]4NC(=O)CC[C@]4(C)[C@H]3CC[C@]2(C)O1 (stereo partly specified)
2.99,> 100,> 100,C[C@]12CCC(=O)N[C@@H]1CC[C@@H]1[C@@H]2CC[C@]2(C)O[C@H](n3cnc4c(NN)nc(Cl)nc43)CC[C@@H]12
58.1,31.1,16.4,CCN(CC)c1nc(Cl)nc2c1ncn2[C@@H]1CC[C@H]2[C@@H]3CC[C@H]4NC(=O)CC[C@]4(C)[C@H]3CC[C@]2(C)O1
49.2,> 100,> 100,C[C@]12CCC(=O)N[C@@H]1CC[C@@H]1[C@@H]2CC[C@]2(C)O[C@H](n3cnc4c(NCCO)ncnc43)CC[C@@H]12
